Peptide text beside a SMILES is read from it.
B1: carbamylated HMWK: carbamylated high molecular weight kininogen (protein, UniProt P01042 19-644, looked up)
Kininogen-1: QESQSEEIDCNDKDLFKAVDAALKKYNSQNQSNNQFVLYRITEATKTVGSDTFYSFKYEIKEGDCPVQSGKTWQDCEYKDAAKAATGECTATVGKRSSTKFSVATQTCQITPAEGPVVTAQYDCLGCVHPISTQSPDLEPILRHGIQYFNNNTQHSSLFMLNEVKRAQRQVVAGLNFRITYSIVQTNCSKENFLFLTPDCKSLWNGDTGECTDNAYIDIQLRIASFSQNCDIYPGKDFVQPPTKICVGCPRDIPTNSPELEETLTHTITKLNAENNATFYFKIDNVKKARVQVVAGKKYFIDFVARETTCSKESNEELTESCETKKLGQSLDCNAEVYVVPWEKKIYPTVNCQPLGMISLMKRPPGFSPFRSSRIGEIKEETTVSPPHTSMAPAQDEERDSGKEQGHTRRHDWGHEKQRKHNLGHGHKHERDQGHGHQRGHGLGHGHEQQHGLGHGHKFKLDDDLEHQGGHVLDHGHKHKHGHGHGKHKNKGKKNGKHNGWKTEHLASSSEDSTTPSAQTQEKTEGPTPIPSLAKPGVTVTFSDFQDSDLIATMMPPISPAPIQSDDDWIPDIQIDPNGLSFNPISDFPDTTSPKCPGRPWKSVSEINPTTQMKESYYFDLTDGLS
modifications: High molecular weight kininogen carbamylated

Tests used:
B2 receptor = molecular target: T1, B2 receptor (Homo sapiens, UniProt P30411); test: Intracellular calcium flux in HaCaT cells; type: cell-based
T1 construct: endogenous in cells; host or cells: HaCaT
T1 sequence (P30411 1-391): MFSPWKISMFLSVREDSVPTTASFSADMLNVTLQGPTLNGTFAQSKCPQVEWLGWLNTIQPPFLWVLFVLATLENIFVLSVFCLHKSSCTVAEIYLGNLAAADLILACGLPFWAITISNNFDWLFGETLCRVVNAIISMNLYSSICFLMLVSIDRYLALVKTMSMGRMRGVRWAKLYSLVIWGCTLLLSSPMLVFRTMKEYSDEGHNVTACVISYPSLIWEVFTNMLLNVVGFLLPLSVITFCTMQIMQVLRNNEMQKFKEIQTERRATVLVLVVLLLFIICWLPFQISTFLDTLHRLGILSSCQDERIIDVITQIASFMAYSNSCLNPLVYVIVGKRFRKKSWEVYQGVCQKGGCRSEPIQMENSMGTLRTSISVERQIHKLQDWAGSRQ
Experimental: HaCaT cells were seeded onto 96-well plates and, upon reaching full confluence, were starved for 3 h (medium without FBS). […] After 1.5 h in 37 °C, fluorescence intensity (485/525 nm) was recorded continuously for 5 min using FlexStation 3 (Molecular Devices). […] FBS (3%) served as positive control. Results were calculated as area under the curves of RFU fold change from the signal recorded at baseline and adjusted to % of maximum response (FBS) curve. Non-linear regression analyses were performed to generate dose–response curves and calculate EC50 values.

pKLK = molecular target: T2, pKLK (Homo sapiens, UniProt P03952); test: BK release from HMWK by pKLK, HPLC; type: biochemical; details: 5 µg HMWK, 500 nM pKLK, 24 h, 50 mM Tris-HCl pH 7.5, 37 °C
T2 construct: purchased Merck
Experimental: Ten µg of BK or cBK (ProImmune) were incubated with 15 ng of CPM (RnD; 1 h in 50 mM MES buffer pH 6.0 containing 5 mM CaCl2, 0.2% Triton-X100), 20 ng of NEP (RnD; 2 h in 50 mM HEPES buffer pH 7.4 containing 150 mM NaCl, 0,01% Triton-X100) or 40 ng of ACE1 (Merck; 4 h in 20 mM HEPES buffer containing 100 µM ZnCl2, 300 mM KCl) in final volume of 11 µl in 37 °C. Substrate controls were incubated in parallel without enzymes. Five µg of HMWK (Merck) were incubated with 500 nM of pKLK (Merck; 24 h in 50 mM Tris–HCl buffer pH 7.5 containing 100 mM NaCl, 0.01% Triton-X100) in final volume of 35 µl in 37 °C. Reactions were stopped with addition of TFA, TCA, EDTA and inhibitors for ACE1 (1 µM lisinopril), NEP (4 mM thiorphan), pKLK (1 mM AEBSF), and analysed via HPLC.
Absorbance chromatograms (215 nm) were evaluated with the LabSolutions software.

T2 sequence (P03952 20-638): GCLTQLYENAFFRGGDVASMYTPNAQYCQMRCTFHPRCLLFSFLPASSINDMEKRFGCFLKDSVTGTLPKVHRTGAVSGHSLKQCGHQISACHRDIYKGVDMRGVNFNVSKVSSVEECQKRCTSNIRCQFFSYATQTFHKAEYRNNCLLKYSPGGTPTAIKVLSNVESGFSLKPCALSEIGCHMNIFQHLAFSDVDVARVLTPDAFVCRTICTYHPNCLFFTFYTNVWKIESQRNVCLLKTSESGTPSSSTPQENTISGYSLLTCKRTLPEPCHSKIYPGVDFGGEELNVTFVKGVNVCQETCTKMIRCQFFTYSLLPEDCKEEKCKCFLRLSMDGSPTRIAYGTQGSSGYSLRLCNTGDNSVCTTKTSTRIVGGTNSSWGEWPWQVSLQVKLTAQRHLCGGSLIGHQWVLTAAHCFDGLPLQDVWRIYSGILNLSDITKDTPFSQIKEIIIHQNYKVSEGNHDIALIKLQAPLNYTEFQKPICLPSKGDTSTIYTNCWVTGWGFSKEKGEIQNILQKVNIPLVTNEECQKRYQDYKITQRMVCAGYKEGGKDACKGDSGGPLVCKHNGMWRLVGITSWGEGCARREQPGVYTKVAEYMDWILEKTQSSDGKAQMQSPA

Row | Molecule | B2-stimulatory potential lower than the response elicited by native BK (B2 receptor; 100 nM peptide, calcium sensitive dye) | EC50 (B2 receptor; Calcium Dye 5, AUC of RFU fold change as % of maximum response (FBS), n = 6, mean ± SEM) [nM] | pKLK-driven generation of BK (pKLK)
1 | N=C(N)NCCC[C@H](NC(=O)[C@H](Cc1ccccc1)NC(=O)[C@@H]1CCCN1C(=O)[C@H](CO)NC(=O)[C@H](Cc1ccccc1)NC(=O)CNC(=O)[C@@H]1CCCN1C(=O)[C@@H]1CCCN1C(=O)[C@H](CCCNC(=N)N)NC(N)=O)C(=O)O [cBK] (HELM PEPTIDE1{[N=C(N)NCCC[C@H](NC(N)=O)C(=O)[*:2]].P.P.G.F.S.P.F.R}$$$$V2.0) | over 25% | 26.55 ± 0.0011 | 
2 | B1 |  |  | abolishes
